Columns and labels:
Influenza A virus [1] = assay: Antiviral activity against Influenza A virus (A/PR 8/34 (H1N1)) infected in MDCK cells assessed as reduction in virus-induced cytopathic effect measured after 72 hrs by microscopic analysis; format: functional, organism-based; conditions: A/Puerto Rico/8/1934(H1N1)
Influenza A virus [2] = assay: Antiviral activity against Influenza A virus (A/PR 8/34 (H1N1)) infected in MDCK cells assessed as reduction in virus-induced cytopathic effect measured after 72 hrs by MTS assay; format: functional, organism-based; conditions: A/Puerto Rico/8/1934(H1N1)
[3] = Cytotoxicity against MDCK cells assessed as change in cell morphology measured after 72 hrs by microscopic analysis; format: cell-based, Canis lupus familiaris; conditions: dog
[4] = Cytotoxicity against MDCK cells assessed as reduction in cell viability measured after 72 hrs by MTS assay; format: cell-based, Canis lupus familiaris; conditions: dog
[5] = Selectivity index, ratio of CC50 for MDCK cells to EC50 for antiviral activity against Influenza A virus (A/Puerto Rico/8/1934(H1N1)) infected in MDCK cells; format: toxicity, cell-based; conditions: dog, read-out: Ratio CC50/EC50

## COC(=O)C[C@H](NC(=O)OC(C)(C)C)C(=O)N(Cc1ccc([N+](=O)[O-])cc1)C1(C(=O)NCc2ccccc2)CCN(Cc2ccccc2)CC1
Influenza A virus [1]
  EC50: 10 µM
Influenza A virus [2]
  EC50: > 100 µM
[3]
  MCC at 72 h: 20 µM
[4]
  CC50 at 72 h: > 100 µM

## COC(=O)C[C@H](NC(=O)OC(C)(C)C)C(=O)N(Cc1ccc(C(F)(F)F)cc1)C1(C(=O)NCc2ccccc2)CCN(Cc2ccccc2)CC1
Influenza A virus [1]
  EC50: > 100 µM
Influenza A virus [2]
  EC50: > 100 µM
[3]
  MCC at 72 h: 84 µM
[4]
  CC50 at 72 h: 54 µM

## CC(C)(C)OC(=O)N[C@@H](CC(N)=O)C(=O)N(Cc1ccccc1)C1(C(=O)NCc2ccccc2)CCN(Cc2ccccc2)CC1
Influenza A virus [1]
  EC50: 6.3 µM
Influenza A virus [2]
  EC50: 6.7 µM
[3]
  MCC at 72 h: > 100 µM
[4]
  CC50 at 72 h: > 100 µM
[5]
  selectivity ratio: ≤ 10

## C[C@H](NC(=O)OC(C)(C)C)C(=O)N(Cc1ccc(F)cc1)C1(C(=O)NCc2ccccc2)CCN(Cc2ccccc2)CC1
Influenza A virus [1]
  EC50: 10 µM
Influenza A virus [2]
  EC50: 11 µM
[3]
  MCC at 72 h: > 100 µM
[4]
  CC50 at 72 h: > 100 µM

## COC(=O)C[C@H](NC(=O)OC(C)(C)C)C(=O)N(Cc1ccc(F)cc1)C1(C(=O)NC(C)(C)C)CCN(Cc2ccccc2)CC1
Influenza A virus [1]
  EC50: > 100 µM
Influenza A virus [2]
  EC50: > 100 µM
[3]
  MCC at 72 h: 80 µM
[4]
  CC50 at 72 h: 50 µM

## COC(=O)C[C@H](NC(=O)OC(C)(C)C)C(=O)N(Cc1cccc(F)c1)C1(C(=O)NCc2ccccc2)CCN(Cc2ccccc2)CC1
Influenza A virus [1]
  EC50: 4.1 µM
Influenza A virus [2]
  EC50: 5.2 µM
[3]
  MCC at 72 h: 47 µM
[4]
  CC50 at 72 h: 75 µM
[5]
  selectivity ratio: ≤ 10

## COC(=O)C[C@H](NC(=O)OC(C)(C)C)C(=O)N(Cc1ccc(F)cc1)C1(C(=O)NCc2ccccc2)CCN(C)CC1
Influenza A virus [1]
  EC50: 36 µM
Influenza A virus [2]
  EC50: 36 µM
[3]
  MCC at 72 h: 17 µM
[4]
  CC50 at 72 h: 9.5 µM

## COC(=O)C[C@H](NC(=O)OC(C)(C)C)C(=O)N(Cc1ccc(F)cc1)C1(C(=O)NCc2ccccc2)CCN(CCc2ccccc2)CC1
Influenza A virus [1]
  EC50: > 100 µM
Influenza A virus [2]
  EC50: > 100 µM
[3]
  MCC at 72 h: 100 µM
[4]
  CC50 at 72 h: 41 µM

## COC(=O)C[C@H](NC(=O)OC(C)(C)C)C(=O)N(Cc1ccc(C)cc1)C1(C(=O)NCc2ccccc2)CCN(Cc2ccccc2)CC1
Influenza A virus [1]
  EC50: 6.9 µM
Influenza A virus [2]
  EC50: > 100 µM
[3]
  MCC at 72 h: > 100 µM
[4]
  CC50 at 72 h: > 100 µM

## COC(=O)C[C@H](NC(=O)OCc1ccccc1)C(=O)N(Cc1ccc(F)cc1)C1(C(=O)NCc2ccccc2)CCN(Cc2ccccc2)CC1
Influenza A virus [1]
  EC50: 2.7 µM
Influenza A virus [2]
  EC50: > 100 µM
[3]
  MCC at 72 h: 2.6 µM
[4]
  CC50 at 72 h: 1.9 µM

## CC(C)(C)NC(=O)C1(N(C(=O)[C@H](Cc2ccccc2)NC(=O)OC(C)(C)C)C2CC2)CCN(Cc2ccccc2)CC1
Influenza A virus [1]
  EC50: 5.8 µM
Influenza A virus [2]
  EC50: 5.3 µM
[3]
  MCC at 72 h: 84 µM
[4]
  CC50 at 72 h: 58 µM
[5]
  selectivity ratio: ≤ 10

## COC(=O)C[C@H](N)C(=O)N(Cc1ccc(F)cc1)C1(C(=O)NCc2ccccc2)CCN(Cc2ccccc2)CC1
Influenza A virus [1]
  EC50: < 0.8 µM
Influenza A virus [2]
  EC50: < 0.8 µM
[3]
  MCC at 72 h: 60 µM
[4]
  CC50 at 72 h: 54 µM

## COC(=O)C[C@H](NC(=O)OC(C)(C)C)C(=O)NC1(C(=O)NCc2ccccc2)CCN(Cc2ccccc2)CC1
Influenza A virus [1]
  EC50: > 100 µM
Influenza A virus [2]
  EC50: > 100 µM
[3]
  MCC at 72 h: 100 µM
[4]
  CC50 at 72 h: 85 µM

## COC(=O)C[C@H](NC(=O)OC(C)(C)C)C(=O)N(Cc1ccc(F)cc1)C1(C(=O)NCc2ccccc2)CC[N+](C)(Cc2ccccc2)CC1 (stereo partly drawn)
Influenza A virus [1]
  EC50: > 100 µM
Influenza A virus [2]
  EC50: > 100 µM
[3]
  MCC at 72 h: 100 µM
[4]
  CC50 at 72 h: 55 µM

## COC(=O)C[C@H](NC(=O)OC(C)(C)C)C(=O)N(Cc1ccc(F)cc1)C1(C(=O)NC2CCCCC2)CCN(Cc2ccccc2)CC1
Influenza A virus [1]
  EC50: > 100 µM
Influenza A virus [2]
  EC50: > 100 µM
[3]
  MCC at 72 h: 100 µM
[4]
  CC50 at 72 h: 44 µM

## COC(=O)C[C@H](NC(=O)OC(C)(C)C)C(=O)N(Cc1ccc(F)cc1)C1(C(=O)NCS(=O)(=O)c2ccc(C)cc2)CCN(Cc2ccccc2)CC1
Influenza A virus [1]
  EC50: > 100 µM
Influenza A virus [2]
  EC50: > 100 µM
[3]
  MCC at 72 h: 4 µM
[4]
  CC50 at 72 h: 6.4 µM

## COC(=O)C[C@H](NC(=O)OC(C)(C)C)C(=O)N(Cc1ccccc1)C1(C(=O)NCc2ccccc2)CCN(Cc2ccccc2)CC1
Influenza A virus [1]
  EC50: 9.3 µM
Influenza A virus [2]
  EC50: 10 µM
[3]
  MCC at 72 h: > 100 µM
[4]
  CC50 at 72 h: > 100 µM
[5]
  selectivity ratio: ≤ 10

## COC(=O)CCC(=O)N(Cc1ccc(F)cc1)C1(C(=O)NCc2ccccc2)CCN(Cc2ccccc2)CC1
Influenza A virus [1]
  EC50: 25 µM
Influenza A virus [2]
  EC50: 24 µM
[3]
  MCC at 72 h: 16 µM
[4]
  CC50 at 72 h: 40 µM

## CC[C@H](C)[C@H](NC(=O)OCc1ccccc1)C(=O)N(C1CC1)C1(C(=O)NCc2ccccc2)CCN(Cc2ccccc2)CC1
Influenza A virus [1]
  EC50: 5.1 µM
Influenza A virus [2]
  EC50: 9 µM
[3]
  MCC at 72 h: > 100 µM
[4]
  CC50 at 72 h: > 100 µM
[5]
  selectivity ratio: 8

## COC(=O)C[C@H](NC(=O)OC(C)(C)C)C(=O)N(Cc1ccc(Cl)cc1)C1(C(=O)NCc2ccccc2)CCN(Cc2ccccc2)CC1
Influenza A virus [1]
  EC50: 1.6 µM
Influenza A virus [2]
  EC50: 1.6 µM
[3]
  MCC at 72 h: 100 µM
[4]
  CC50 at 72 h: 63 µM
[5]
  selectivity ratio: ≤ 10

## CC[C@H](C)[C@H](NC(=O)OC(C)(C)C)C(=O)N(Cc1ccccc1)C1(C(=O)NCc2ccccc2)CCN(Cc2ccccc2)CC1
Influenza A virus [1]
  EC50: > 100 µM
Influenza A virus [2]
  EC50: > 100 µM
[3]
  MCC at 72 h: > 100 µM
[4]
  CC50 at 72 h: > 100 µM

## CC[C@H](C)[C@H](NC(=O)OCc1ccccc1)C(=O)N(C1CC1)C1(C(=O)NC(C)(C)C)CCN(Cc2ccccc2)CC1
Influenza A virus [1]
  EC50: 4.3 µM
Influenza A virus [2]
  EC50: 3.9 µM
[3]
  MCC at 72 h: 100 µM
[4]
  CC50 at 72 h: 59 µM
[5]
  selectivity ratio: 13

## COC(=O)C[C@H](NC(=O)OC(C)(C)C)C(=O)N(Cc1ccccc1F)C1(C(=O)NCc2ccccc2)CCN(Cc2ccccc2)CC1
Influenza A virus [1]
  EC50: 9.3 µM
Influenza A virus [2]
  EC50: 8.7 µM
[3]
  MCC at 72 h: 20 µM
[4]
  CC50 at 72 h: 72 µM
[5]
  selectivity ratio: ≤ 10

## COC(=O)C[C@H](NC(=O)OC(C)(C)C)C(=O)N(C)C1(C(=O)NCc2ccccc2)CCN(Cc2ccccc2)CC1
Influenza A virus [1]
  EC50: 14 µM
Influenza A virus [2]
  EC50: > 100 µM
[3]
  MCC at 72 h: 20 µM
[4]
  CC50 at 72 h: 25 µM

## COC(=O)CC[C@H](NC(=O)OC(C)(C)C)C(=O)N(Cc1ccc(F)cc1)C1(C(=O)NCc2ccccc2)CCN(Cc2ccccc2)CC1
Influenza A virus [1]
  EC50: 9.8 µM
Influenza A virus [2]
  EC50: 10 µM
[3]
  MCC at 72 h: > 100 µM
[4]
  CC50 at 72 h: > 100 µM
[5]
  selectivity ratio: ≤ 10

## COC(=O)C[C@H](NC(=O)OC(C)(C)C)C(=O)N(Cc1ccc(F)cc1)C1(C(=O)NCc2ccccc2)CCN(C2CCCCC2)CC1
Influenza A virus [1]
  EC50: > 100 µM
Influenza A virus [2]
  EC50: > 100 µM
[3]
  MCC at 72 h: 73 µM
[4]
  CC50 at 72 h: 42 µM

## COC(=O)C[C@H](NC(=O)OC(C)(C)C)C(=O)N(Cc1ccc(F)cc1)C1(C(=O)NCc2ccccc2)CCNCC1
Influenza A virus [1]
  EC50: > 73 µM
Influenza A virus [2]
  EC50: > 89 µM
[3]
  MCC at 72 h: 100 µM
[4]
  CC50 at 72 h: 48 µM

## CCC(C)N(C(=O)[C@H](CC(=O)OC)NC(=O)OC(C)(C)C)C1(C(=O)NCc2ccccc2)CCN(Cc2ccccc2)CC1 (stereo partly drawn)
Influenza A virus [1]
  EC50: > 100 µM
Influenza A virus [2]
  EC50: > 100 µM
[3]
  MCC at 72 h: 84 µM
[4]
  CC50 at 72 h: 53 µM

## COC(=O)C[C@H](NC(=O)OC(C)(C)C)C(=O)N(Cc1ccc(F)cc1)C1(C(=O)NCc2ccccc2)CCN(c2ccccc2)CC1
Influenza A virus [1]
  EC50: > 100 µM
Influenza A virus [2]
  EC50: > 100 µM
[3]
  MCC at 72 h: 20 µM
[4]
  CC50 at 72 h: 8.2 µM

## CC(C)(C)OC(=O)N[C@@H](Cc1ccccc1)C(=O)N(Cc1ccc(F)cc1)C1(C(=O)NCc2ccccc2)CCN(Cc2ccccc2)CC1
Influenza A virus [1]
  EC50: > 100 µM
Influenza A virus [2]
  EC50: > 100 µM
[3]
  MCC at 72 h: 100 µM
[4]
  CC50 at 72 h: 56 µM

## COC(=O)C[C@H](NC(=O)OC(C)(C)C)C(=O)N(Cc1ccc(F)cc1)C(C)(C)C(=O)NCc1ccccc1
Influenza A virus [1]
  EC50: > 100 µM
Influenza A virus [2]
  EC50: > 100 µM
[3]
  MCC at 72 h: 20 µM
[4]
  CC50 at 72 h: 10 µM

## COC(=O)C[C@H](NC(=O)OC(C)(C)C)C(=O)N(Cc1ccc(F)cc1)C1(C(=O)NCc2ccccc2)CCN(Cc2cccc(F)c2)CC1
Influenza A virus [1]
  EC50: 1.6 µM
Influenza A virus [2]
  EC50: 1.6 µM
[3]
  MCC at 72 h: 84 µM
[4]
  CC50 at 72 h: 73 µM

## COC(=O)C[C@H](NC(=O)OC(C)(C)C)C(=O)N(Cc1ccc(F)cc1)C1(C(=O)NCc2ccccc2)CCN(Cc2cc(F)cc(F)c2)CC1
Influenza A virus [1]
  EC50: > 100 µM
Influenza A virus [2]
  EC50: > 100 µM
[3]
  MCC at 72 h: 100 µM
[4]
  CC50 at 72 h: 84 µM

## COC(=O)C[C@H](NC(=O)OC(C)(C)C)C(=O)N(C1CC1)C1(C(=O)NCc2ccccc2)CCN(Cc2ccccc2)CC1
Influenza A virus [1]
  EC50: > 100 µM
Influenza A virus [2]
  EC50: > 100 µM
[3]
  MCC at 72 h: 84 µM
[4]
  CC50 at 72 h: 56 µM

## COC(=O)C[C@H](NC(=O)OC(C)(C)C)C(=O)N(Cc1ccc(F)c(F)c1)C1(C(=O)NCc2ccccc2)CCN(Cc2ccccc2)CC1
Influenza A virus [1]
  EC50: > 100 µM
Influenza A virus [2]
  EC50: > 100 µM
[3]
  MCC at 72 h: 20 µM
[4]
  CC50 at 72 h: 52 µM

## COC(=O)C[C@H](NC(=O)OC(C)(C)C)C(=O)N(CCNc1ccccc1)C1(C(=O)NCc2ccccc2)CCN(Cc2ccccc2)CC1
Influenza A virus [1]
  EC50: > 100 µM
Influenza A virus [2]
  EC50: > 100 µM
[3]
  MCC at 72 h: 14 µM
[4]
  CC50 at 72 h: 68 µM
